Where a name gives a salt, the structure may show the parent alone.

What is called melting point is the temperature of the solid-liquid transition.

Data set [1] is described as follows: Hygroscopicity of acid addition salts. It is filed as physicochemical. The conditions noted are these: acid addition salts as isolated. An excerpt: The hydrochloride salts of Compounds 6, 8a, 11, 13, 14, 16, 18 and 21 were identified as hygroscopic. […] The basis for this assumption was that the addition salt of an aromatic acid would be less hygroscopic than that of the corresponding hydrochloric acid addition salt. Thus, the butyl ester, Compound 20 was Boc-deprotected with 3 equivalents of benzenesulfonic acid in […].

`CCCCOC(=O)C(Cc1ccc(OC(=O)CCCN)c(OC(=O)CCCN)c1)NC(=O)CCCN` (stereo not drawn) (as salt: hydrochloride) [Compound 18] yielded a melting point of 74 to 75 °C.

Turning to `COC(=O)C(Cc1ccc(O)c(O)c1)NC(=O)CCCN.Cl` (stereo not drawn) [Compound 8a, methyl-2-(4-aminobutanamide)-3-(3,4-dihydroxyphenyl)propanoate hydrochloride], in data set [1], the hygroscopicity result is reported as “hygroscopic”.

`CCCCOC(=O)[C@@H](N)Cc1ccc(OC(=O)CCCN)c(OC(=O)CCCN)c1` (as salt: hydrochloride) [AN-490, Butyl-2-amino-3-(3,4-phenyl-di[4-aminobutanoate])propanoate tri-hydrochloride] had a melting point of 175 to 176 °C.

`COC(=O)[C@@H](N)Cc1ccc(O)c(O)c1.Cl` [Compound 6, L-DOPA methyl ester hydrochloride]: in data set [1], the hygroscopicity entry is reported as “hygroscopic”.

On to “Butyl-2-amino-3-(3,4-phenyl-di[4-aminobutanoate])propanoate tri-benzenesulfonate salt [Compound 22]”, for which the hygroscopicity result in data set [1] is “much less hygroscopic”.

`COC(=O)C(Cc1ccc(OC(=O)CCCN)c(OC(=O)CCCN)c1)NC(=O)CCCN.Cl` (stereo not drawn) [Compound 13]: the melting point amounted to 87 °C. Besides, the hygroscopicity entry in data set [1] was “hygroscopic”.

With `CCCCOC(=O)C(Cc1ccc(O)c(O)c1)NC(=O)CCCN` (stereo not drawn) (as salt: hydrochloride) [BL-1023*, Butyl-2-(4-Aminobutanamide)-3-(3,4-dihydroxyphenyl)propanoate hydrochloride], the melting point stood at 77 °C.

In turn, `COC(=O)C(N)Cc1ccc(OC(=O)CCCN)c(OC(=O)CCCN)c1.Cl` (stereo not drawn) [Compound 11, methyl-2-amino-3-(3,4-phenyl-di-[4-aminobutanoate])propanoate-trihydrochloride] had a melting point of 185 °C. For the same compound, the hygroscopicity entry in data set [1] was “hygroscopic”.

For `CCCCOC(=O)C(Cc1ccc(OC(=O)CCCN)c(OC(=O)CCCN)c1)NC(=O)CCCN` (stereo not drawn) [Compound 18], the hygroscopicity entry in data set [1] was “hygroscopic”.

On to `CCCCOC(=O)C(N)Cc1ccc(O)c(O)c1.Cl` (stereo not drawn) [Compound 14, Butyl-2-amino-3-(3,4-dihydroxyphenyl)propanoate hydrochloride], for which the hygroscopicity result in data set [1] is recorded as “hygroscopic”.
